Laboratory results taken from paper PMC11232401, “Characterization of antimalarial activity of artemisinin-based hybrid drugs” (Antimicrobial Agents and Chemotherapy, 2024).
Like-named read-outs stand apart in the source and are kept apart here.

Experiments:
[1] = test system: NF54 strain of P. falciparum; experiment: Ring-stage-specific drug activity (pLDH); assay type: cell-based; conditions: Plasmodium falciparum, median ± SEM
Description: Each compound was dissolved in dimethyl sulfoxide (DMSO) and diluted in RPMI-1640 medium into seven different concentrations, which were tested against CQ-susceptible strains (NF54 or D10) or a CQ-resistant strain (W2). Each well of 96-well plates was filled with 100 µL drug and 100 µL parasitized RBC (asynchronous parasite culture), which were mixed to obtain a final parasitemia of 1.0% to 1.5% and 1.0% hematocrit. Plates were incubated for 72 h at 37°C in a standard gas mixture; then, parasite growth was determined by measuring the activity of the parasite lactate dehydrogenase (pLDH) ([38]). Briefly, at the end of incubation, the cultures were carefully resuspended, and 20 µL aliquots were removed and added to 100 µL Malstat reagent in a 96-well microplate. The Malstat reagent is made of 0.125% TritonX-100, 130 mM L-lactate, 30 mM Tris buffer, and 0.62 µM 3-acetylpyridine adenine dinucleotide. After that, 20 µL 1.9 µM nitro blue tetrazolium (NBT) and 0.24 µM phenazine ethyl sulfate were added to the plate. NBT was reduced to blueformazan and spectrophotometrically read at OD 650 nm using a Synergy 4 microplate reader (BioTek, Santa Clara, USA). […] IC50 values were expressed as means of two to three independent experiments, with each drug concentration in duplicate.
The NF54 strain of P. falciparum was employed to test the drugs’ activity against ring stages and asynchronous parasite culture (all stages). The ring stages were obtained by synchronization with D-Sorbitol using a standard method ([39]). Each well of 96-well plates was filled with 100 µL each drug and 100 µL culture containing ring-stage or asynchronous parasites, which were mixed to obtain a final parasitemia of 1.0% to 1.5% and 1.0% hematocrit. […] Plates were processed using the pLDH method, and IC50 values were calculated as described above. At least two to three independent experiments were performed, using two technical replicates.
^[a] Synchronized ring-stage parasites were incubated in the presence of compounds for 6 h, drugs were removed by washing, and plates were incubated for an additional 66 h. ^[b] Asynchronous parasites were incubated in the presence of compounds for 6 h, drugs were removed by washing, and plates were incubated for an additional 66 h. ^[c] Asynchronous parasites were incubated in the presence of compounds for 72 h. ^[a,b^] Experiments were performed in parallel. ^[d] […] Parasite viability was determined by parasite lactate dehydrogenase. Data are from three experiments performed in duplicate. MFQ = mefloquine; DHA = dihydroartemisinin; SEM = standard error of the mean.

[2] = test system: hematin (iron III)-initiated β-hematin formation; experiment: β-hematin inhibitory activity under oxidizing condition (O-BHIA); assay type: biochemical; conditions: hematin as starting reagent; mean (95% CI)
Description: The compounds were dissolved in DMSO and diluted in DMSO to six different concentrations (1.0–32 mM). Hemin (Fe^III[PPIX]Cl) (BioXtra, Sigma-Aldrich) was first dissolved in 0.1 M NaOH and then suspended in an 80:20 vol/vol mixture of DMSO and propionate buffer (0.1 M, pH 5.6) to a stock solution at 8 mM. Reduced glutathione (GSH) was dissolved in 0.1 M NaOH and then adjusted to 10 mM using propionate buffer (0.1 M, pH 5.6). For β-hematin inhibitory activity (BHIA) under the reducing condition (R-BHIA), hemin (10 µL) and GSH (10 µL) were distributed in a 96-well plate and homogenized, and the plates were sealed using a thin plastic film and incubated for 1 h at 37°C. Then, 20 µL of the drug was added, and the plates were incubated for 2 h at 37°C. The plastic film was removed after drug incubation, 160 µL propionate buffer (1.0 M, pH 5.6) was added, and plates were incubated for 18 h at 37°C. BHIA under the oxidizing condition (O-BHIA) was prepared in parallel without adding GSH. Controls included wells without drugs and wells containing PBS 1× instead of propionate buffer. Afterward, the plates were centrifuged, the supernatant was discarded, and the pellets of β-hematin crystals were washed twice with pure DMSO and then water. The resulting β-hematin crystals were then dissolved in 200 µL 0.1 M NaOH and diluted to a 1:8 ratio. Aliquots were then transferred into a new plate and read by UV-visible absorbance at […]. Percent of BHIA was calculated in comparison to untreated wells (no drugs), and IC50 was then calculated. Two independent experiments were performed using three replicates of each drug concentration ([46]).
Figure S6: A summary of IC50 values derived from β-hematin inhibitory activity (BHIA). Footnotes for table: ^[a,b^] Values are mean and 95% confidence interval of one experiment, each concentration in triplicate. ^[a] Using heme (Fe[II]PPIX[Cl]) as a starting reagent. ^[b] Using hematin (Fe[III]PPIX[OH]) as a starting reagent. ^[c] […] CQ = chloroquine. R-BHIA = reducing β-hematin inhibitory activity. O-BHIA = oxidizing β-hematin inhibitory activity.

[3] = test system: P. falciparum Dd2 strain; parameters: method as in PMID 31290221, PMID 34832911, PMID 38559731; conditions: asynchronous culture, SYBR Green I; read-out: IC50 (nM, median ± SEM) for P. falciparum Dd2 strain; cited from earlier work
[4] = test system: Ring stages of NF54 strain P. falciparum; experiment: Antiplasmodial activity of drug combinations (pLDH, isobologram/FIC); assay type: cell-based; conditions: Plasmodium falciparum, NF54, ring stages NF54; mean (95% CI); tested in parallel with the combination of the same line; read-out: IC50, Drugs alone
Description: The activity of the drug combinations against the P. falciparum NF54 strain was determined as described above. In each experiment, drugs were tested alone and in combination. Twofold serial dilutions of the drug solutions were made using fixed molar ratios of 1:1, 1:3, and 3:1 for each combination and using two technical replicates (ranging from 200 to 1.0 nM). Parasite growth was determined by the pLDH method, as described above. IC50 values for each drug alone or in combination were determined, and an isobologram analysis was performed by plotting the fractional inhibitory concentrations (FIC) for each combination and its component drugs separately. Individual FIC values were calculated as the IC50 of the drug combination divided by the IC50 of the drug in isolation. A dashed line was plotted to indicate any additive effect and distinguish antagonism (above the dashed line) from synergism (below the dashed line). Three independent experiments were performed, each one containing two replicates. Each experiment was used to represent an isobologram analysis [mean and 95% confidence interval (CI)].
Values represent one experiment; each concentration of drug combination was tested in technical duplicate. Black dashed line indicates ΣFIC = 1 (absolute additivity). […] FIC index <1 is synergistic, ~1 is additive, and >1 is antagonistic. Nondetrimental interactions are 0.25 <ΣFIC <1.25.
^[a] Values are the mean and 95% confidence interval of one experiment for each concentration of compounds in duplicate.

[5] = test system: P. falciparum 3D7 strain; parameters: method as in PMID 31290221, PMID 34832911, PMID 38559731; conditions: asynchronous culture, SYBR Green I; read-out: IC50 (nM, median ± SEM) for P. falciparum 3D7 strain; cited from earlier work
[6] = asynchronous parasites, 6 h drug, wash, additional 66 h, read-out: IC50, Asynchronous
[7] = asynchronous parasites, 72 h continuous drug, read-out: IC50, 72 h
[8] = synchronized ring stages, 6 h drug, wash, additional 66 h, read-out: IC50, Ring stages

Row | SMILES | IC50 [1, 6] | IC50 [1, 7] | IC50 [1, 8] | IC50 [2] | IC50 [3] | IC50 [4] | IC50 [5]
1 | C[C@H]1[C@@H](O)O[C@@H]2O[C@@]3(C)CC[C@H]4[C@H](C)CC[C@@H]1[C@@]24OO3 [DHA, dihydroartemisinin, reference compound] | 0.0046 ± 0.0009 µM | 0.0021 ± 0.0006 µM | 0.005 ± 0.0005 µM | > 1000 µM |  |  | 
2 | COCCOCCOCCOCCn1c(-c2ccc(-n3cc(-c4ccc(OC5OC6OC7(C)CCC8C(C)CCC(C5C)C68OO7)cc4)nn3)cc2)nc2ccccc21 (centres unmarked) [Hybrid 1] | 0.0035 ± 0.0003 µM | 0.003 ± 0.0003 µM | 0.0015 ± 0.0003 µM | > 1000 µM | 3 ± 0.3 nM | 0.0022 µM | 3 ± 0.2 nM
3 | CC1CCC2C(C)C(OC(=O)CCC(=O)OCCNc3ccnc4cc(Cl)ccc34)OC3OC4(C)CCC1C32OO4 (centres unmarked) [Hybrid 2] | 0.0191 ± 0.0018 µM | 0.0081 ± 0.001 µM | 0.009 ± 0.0015 µM |  | 2.3 ± 0.6 nM | 0.0047 µM | 4.5 ± 0.5 nM
